In US9603849B2, “Uses of orvepitant” (NERRE THERAPEUTICS LIMITED, priority 2012, dated 2017):

Molecular target: NK-1 receptor (Meriones unguiculatus, UniProt Q5DUB1)
Experiment: GR73632-induced hindlimb scratching behaviour in the Mongolian gerbil
Type: in vivo
Conditions: all doses tested (from 0.1 to 10.0 mg/kg)
Source text: 5) Particularly the antipruritic effect of orvepitant maleate was determinated in GR73632-induced scratching behaviour in the Mongolian gerbil. According to this metholody the scratching behaviour was induced by GR73632 which is a specific agonist of the NK-1 receptor.
72 male Mongolian gerbils (58-78 g) after a minimum habituation period of 10 days prior to study commencement, were acclimatised to the procedure room in their home cages, with food and water available ad libitum. The day before the experiment was due to commence a 1 cm×1 cm squared area between the shoulder blades was shaved free of hair.
Habituation to the apparatus (custom made observation chambers; approximately 30×30 cm; 2 animals per observation) took place 30 minutes prior to induction of scratching behaviours using GR73632.
A 10 mg/kg stock solution of orvepitant maleate was made by dissolving 20 mg of orvepitant maleate Form 1 in 20 mls of vehicle (5% DMSO & 95% HPMC (0.5%)). This stock solution was serially diluted to prepare doses of 0.1, 0.3, 1.0, 3.0 or 10 mg/kg orvepitant maleate.
At T=−60 mins mongolian gerbils were dosed with orvepitant maleate (0.1, 0.3, 1.0, 3.0 or, 10 mg/kg p.o.). Gerbils were allocated to dosing groups based on a Latin square design. 30 Minutes later (T=−30 mins) gerbils were placed into the observation chamber for 30 minutes habituation. At T=0 Gerbils were then dosed with GR73632 (30 nmol/100 uL; i.d.) between the shoulder blades and their subsequent hindlimb scratching behaviour recorded using GeoVision surveillance software over a 30 minute period.
Playing back of the video served for counting scratching behaviour. […] Cumulative frequency and duration (secs) of scratching was scored in 5 min epochs. Treatment groups were randomised based on a Latin Square design. The experimenter was blinded to the treatment groups.
Repeated measures ANOVA followed by Planned comparison test using GraphPad Prism. (p<0.05 considered significant). Data were analysed by comparing treatment groups to control group at each time point.

NK-1 receptor, sequence (Q5DUB1 whole entry): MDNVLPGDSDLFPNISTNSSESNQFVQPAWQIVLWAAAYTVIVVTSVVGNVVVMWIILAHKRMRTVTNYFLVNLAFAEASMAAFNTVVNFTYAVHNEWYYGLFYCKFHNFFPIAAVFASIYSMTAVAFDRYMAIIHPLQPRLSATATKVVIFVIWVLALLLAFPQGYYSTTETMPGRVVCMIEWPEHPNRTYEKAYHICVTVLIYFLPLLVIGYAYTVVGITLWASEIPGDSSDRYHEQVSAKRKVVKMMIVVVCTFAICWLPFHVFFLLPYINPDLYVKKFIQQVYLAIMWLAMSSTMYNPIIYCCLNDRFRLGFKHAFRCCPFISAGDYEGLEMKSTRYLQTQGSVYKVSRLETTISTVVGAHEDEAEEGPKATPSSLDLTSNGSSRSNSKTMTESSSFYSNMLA

SMILES: Cc1cc(F)ccc1[C@H]1C[C@@H](N2CCN3C(=O)CC[C@H]3C2)CCN1C(=O)N(C)[C@H](C)c1cc(C(F)(F)F)cc(C(F)(F)F)c1 [Orvepitant, 2-(R)-(4-Fluoro-2-methyl-phenyl)-4-(S)-((8aS)-6-oxo-hexahydro-pyrrolo[1,2-a]-pyrazin-2-yl)-piperidine-1-carboxylic acid [1-(R)-(3,5-bis-trifluoromethyl-phenyl)-ethyl]-methylamide]
- inhibition of GR73632 induced hindlimb scratching: profound inhibition
